Source: the supplement of paper PMC11451515

Legend:
Conditions in all cases: 48 h
P12-Ichikawa [1] = experiment: cell viability relative to DMSO control; higher = less cytotoxic
Procedure, shortened: (§1)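 NOMO1 or SEM cells were plated at 500 cells/well and P12-Ichikawa cells at 1000 cells/well in 1536-well plates (5 μl), after each leukemia line had been adapted for at least four passages in each medium. Pin dosing delivered library compounds in DMSO at 11 threefold concentrations, 47 μM to 0.79 nM. CellTiter-Glo One luminescence was read after 48 h at 37°C. Viability is reported as a per-plate percentage of DMSO wells, with cell-free wells as background.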

SEM cells [2] = experiment: as above
Procedure, shortened: as §1

NOMO1 [3] = experiment: AUC of viability dose-response curve (% viability x log10 dose units); higher = less sensitive
Procedure, shortened: (§2)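 Medium-adapted leukemia cells in 1536-well plates, at 500 or 1000 cells/well, were incubated for 48 h at 37°C with library compounds in DMSO at 11 threefold doses from 47 μM to 0.79 nM. CellTiter-Glo One luminescence normalised per plate to DMSO and cell-free wells was fitted with a four-parameter log-logistic model over log10 doses. Area under the curve was integrated from this fit by trapezoidal rule, with curves beyond full viability scaled and failed quality-control curves removed.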

P12-Ichikawa [4] = experiment: as above
Procedure, shortened: as §2

SEM cells [5] = experiment: as above
Procedure, shortened: as §2

NOMO1 [6] = experiment: cell viability relative to DMSO control; higher = less cytotoxic
Procedure, shortened: as §1

CCOC(=O)[C@H](CCc1ccccc1)N[C@@H](C)C(=O)N1[C@H](C(=O)O)C[C@@H]2CCC[C@@H]21
Conditions	cell viability [%]
P12-Ichikawa [1], HPLM + 10% dialyzed FBS, 0.000781 µM	117
P12-Ichikawa [1], HPLM + 10% dialyzed FBS, 0.00234 µM	124
P12-Ichikawa [1], HPLM + 10% dialyzed FBS, 0.00702 µM	127
P12-Ichikawa [1], HPLM + 10% dialyzed FBS, 0.0211 µM	124
P12-Ichikawa [1], HPLM + 10% dialyzed FBS, 0.0632 µM	126
P12-Ichikawa [1], HPLM + 10% dialyzed FBS, 0.19 µM	128
P12-Ichikawa [1], HPLM + 10% dialyzed FBS, 0.569 µM	123
P12-Ichikawa [1], HPLM + 10% dialyzed FBS, 1.71 µM	126
P12-Ichikawa [1], HPLM + 10% dialyzed FBS, 5.12 µM	122
P12-Ichikawa [1], HPLM + 10% dialyzed FBS, 15.4 µM	115
P12-Ichikawa [1], HPLM + 10% dialyzed FBS, 46.1 µM	7.37
SEM cells [2], RPMI 5 mM glucose + 10% FBS, 0.000781 µM	110
SEM cells [2], RPMI 5 mM glucose + 10% FBS, 0.00234 µM	116
SEM cells [2], RPMI 5 mM glucose + 10% FBS, 0.00702 µM	117
SEM cells [2], RPMI 5 mM glucose + 10% FBS, 0.0211 µM	143
SEM cells [2], RPMI 5 mM glucose + 10% FBS, 0.0632 µM	147
SEM cells [2], RPMI 5 mM glucose + 10% FBS, 0.19 µM	127
SEM cells [2], RPMI 5 mM glucose + 10% FBS, 0.569 µM	135
SEM cells [2], RPMI 5 mM glucose + 10% FBS, 1.71 µM	113
SEM cells [2], RPMI 5 mM glucose + 10% FBS, 5.12 µM	121
SEM cells [2], RPMI 5 mM glucose + 10% FBS, 15.4 µM	89
SEM cells [2], RPMI 5 mM glucose + 10% FBS, 46.1 µM	7.67

AUC of viability dose-response curve
Conditions	NOMO1 [3]	P12-Ichikawa [4]	SEM cells [5]
HPLM + 10% dialyzed FBS	443	451	450
RPMI 5 mM glucose + 10% FBS	449	451	440
RPMI 5 mM glucose + 10% dialyzed FBS	444	450	451

CN1CC(=O)\N=C1\NC(=O)NC2=CC(=CC=C2)Cl
AUC of viability dose-response curve
Conditions	NOMO1 [3]	P12-Ichikawa [4]	SEM cells [5]
HPLM + 10% dialyzed FBS	452	442	448
RPMI 5 mM glucose + 10% FBS	453	459	471
RPMI 5 mM glucose + 10% dialyzed FBS	468	463	457

CN(C)C/C=C/C(=O)Nc1cc2c(Nc3ccc(F)c(Cl)c3)ncnc2cc1O[C@H]1CCOC1
AUC of viability dose-response curve
Conditions	NOMO1 [3]	P12-Ichikawa [4]	SEM cells [5]
HPLM + 10% dialyzed FBS	339	337	320
RPMI 5 mM glucose + 10% FBS	342	338	304
RPMI 5 mM glucose + 10% dialyzed FBS	345	347	324

CO[C@@H]1C(N(C)C(=O)c2ccccc2)C[C@H]2O[C@]1(C)n1c3ccccc3c3c4c(c5c6ccccc6n2c5c31)C(=O)NC4=O (some centres undefined)
cell viability [%]
Conditions	NOMO1 [6]	P12-Ichikawa [1]	SEM cells [2]
HPLM + 10% dialyzed FBS, 0.000781 µM	82.2	84.9	70.6
HPLM + 10% dialyzed FBS, 0.00234 µM	105	88.1	69.4
HPLM + 10% dialyzed FBS, 0.00702 µM	90.2	93.3	95.4
HPLM + 10% dialyzed FBS, 0.0211 µM	106	92.3	89.2
HPLM + 10% dialyzed FBS, 0.0632 µM	98.1	91	75.8
HPLM + 10% dialyzed FBS, 0.19 µM	104	97.7	92.6
HPLM + 10% dialyzed FBS, 0.569 µM	98.3	99	90
HPLM + 10% dialyzed FBS, 1.71 µM	101	91.2	80.5
HPLM + 10% dialyzed FBS, 5.12 µM	58.4	90	40.3
HPLM + 10% dialyzed FBS, 15.4 µM	40.4	46	14.7
HPLM + 10% dialyzed FBS, 46.1 µM	10.2	25.9	7.83
RPMI 5 mM glucose + 10% FBS, 0.000781 µM	76.8	78.8	68.2
RPMI 5 mM glucose + 10% FBS, 0.00234 µM	90.2	87.8	66.2
RPMI 5 mM glucose + 10% FBS, 0.00702 µM	83.1	88.7	92.1
RPMI 5 mM glucose + 10% FBS, 0.0211 µM	91	90.9	91.2
RPMI 5 mM glucose + 10% FBS, 0.0632 µM	88.4	97.4	86.5
RPMI 5 mM glucose + 10% FBS, 0.19 µM	104	87	86.1
RPMI 5 mM glucose + 10% FBS, 0.569 µM	87	84.8	75.1
RPMI 5 mM glucose + 10% FBS, 1.71 µM	89.3	90.2	47.7
RPMI 5 mM glucose + 10% FBS, 5.12 µM	53.5	73.4	19.4
RPMI 5 mM glucose + 10% FBS, 15.4 µM	47.7	27.1	10.7
RPMI 5 mM glucose + 10% FBS, 46.1 µM	8.01	32.5	7.46
RPMI 5 mM glucose + 10% dialyzed FBS, 0.000781 µM	71.5	78.9	81.5
RPMI 5 mM glucose + 10% dialyzed FBS, 0.00234 µM	78.8	84.4	84.1
RPMI 5 mM glucose + 10% dialyzed FBS, 0.00702 µM	78	91	91.7
RPMI 5 mM glucose + 10% dialyzed FBS, 0.0211 µM	91.7	91.9	79.6
RPMI 5 mM glucose + 10% dialyzed FBS, 0.0632 µM	85.1	82.9	82.7
RPMI 5 mM glucose + 10% dialyzed FBS, 0.19 µM	85.4	90.1	102
RPMI 5 mM glucose + 10% dialyzed FBS, 0.569 µM	75.3	83	79.7
RPMI 5 mM glucose + 10% dialyzed FBS, 1.71 µM	90.6	84.8	74.4
RPMI 5 mM glucose + 10% dialyzed FBS, 5.12 µM	42.7	87.8	35.7
RPMI 5 mM glucose + 10% dialyzed FBS, 15.4 µM	49.1	23.2	13.2
RPMI 5 mM glucose + 10% dialyzed FBS, 46.1 µM	8.58	32.7	8.6

AUC of viability dose-response curve
Conditions	HPLM + 10% dialyzed FBS	RPMI 5 mM glucose + 10% FBS	RPMI 5 mM glucose + 10% dialyzed FBS
P12-Ichikawa [4]	401	372	369
SEM cells [5]	324	289	327
